Experimental findings from patent publication US20200188426A1, “WOUND MANAGEMENT METHOD” (priority 2018, published 2020) are described below.

The assay deals with microbes (bacteria, fungi, and viruses). The assay is described as follows: testing of methylene chloride as microbicidal agent. The conditions noted are these: in liquid form, prior to evaporation. The class given is cell-based.

With `ClCCl` [methylene chloride], the “microbicidal activity on contact” value was “kill microbes (bacteria, fungi, and viruses) on contact”.
